Measurements reported in patent US20200095236A1, “ANTIBACTERIAL COMPOUNDS” (FORGE THERAPEUTICS, INC., priority 2017, published 2020).
In brackets after ≈: the same amount, converted by molar mass. Read-outs that look alike come from different tables or passages of the source.

What was measured:
Format in all cases: cell-based
E. coli = assay: Bacterial susceptibility testing, MIC by broth microdilution (CLSI); conditions: for MIC: Escherichia coli, read-out: E. coli MIC
Description: (§1) Minimal inhibitory concentrations (MIC) were determined by the broth microdilution method in accordance with the Clinical and Laboratory Standards Institute (CLSI) guidelines. In brief, organism suspensions were adjusted to a 0.5 McFarland standard to yield a final inoculum between 3×10^5 and 7×10^5 colony-forming units (CFU)/mL. Drug dilutions and inocula were made in sterile, cation adjusted Mueller-Hinton Broth (Beckton Dickinson). An inoculum volume of 100 μL was added to wells containing 100 μL of broth with 2-fold serial dilutions of drug. All inoculated microdilution trays were incubated in ambient air at 35° C. for 18-24 h. Following incubation, the lowest concentration of the drug that prevented visible growth (OD600 nm<0.05) was recorded as the MIC. Performance of the assay was monitored by the use of laboratory quality-control strains and levofloxacin, a compound with a defined MIC spectrum, in accordance with CLSI guidelines.

K. pneumoniae = assay: as above; conditions: for MIC: Klebsiella pneumoniae, read-out: K. pneumoniae MIC
Description: as §1

S. aureus = assay: as above; conditions: for MIC: Staphylococcus aureus, read-out: S. aureus MIC
Description: as §1

[1] = test system: TLR-4 activity of A. baumannii culture supernatants; assay: TLR4 assay: TLR4 activity of A. baumannii culture supernatants in HEK-Blue-hTLR4 cells; conditions: Acinetobacter baumannii, HEK-Blue hTLR4, read-out: % TLR-4 activity
Description: The TLR4 assay measures activity of diluted filter-sterilized A. baumannii culture supernatants. The assay was performed as described in Lin et al, Mbio, 2012. Briefly, A. baumannii was passaged to mid log-phase in the presence of Forge LpxC inhibitors. Culture supernatants were harvested, filter-sterilized and diluted 1:1000. TLR4 activity of the supernatants was tested using HEK-Blue-hTLR4 cells (Invivogen) that carry NF-kB and AP-1 driven SEAP (secreted embryonic alkaline phosphatase) reporter gene.
Exemplary TLR4 assay data (% TLR-4 activity) for compounds in embodiments of the disclosure.

[2] = broth microdilution, 35° C., 18-24 h

SMILES	MIC (E. coli; [2]) [µg/mL]	MIC (K. pneumoniae; [2]) [µg/mL]	MIC (S. aureus; [2]) [µg/mL]	further results
O=c1[nH]cnc(C2(Cc3ccc(C#Cc4ccc(CN[C@@H]5CCOC5)cc4)cc3)CC2)c1O [Compound 247, (R)-5-hydroxy-6-(1-(4-((4-(((tetrahydrofuran-3-yl)amino)methyl)phenyl)ethynyl)benzyl)cyclopropyl)pyrimidin-4(3H)-one]	1 to 8 (≈ 2.26 to 18.1 µM)	8 to 32 (≈ 18.1 to 72.5 µM)	–	–
C=CCNC(=O)C(Cc1ccc(C#Cc2ccc(CN3CCOCC3)cc2)cc1)c1nc[nH]c(=O)c1O (centres unmarked) [Compound 6, N-allyl-2-(5-hydroxy-6-oxo-1,6-dihydropyrimidin-4-yl)-3-(4-((4-(morpholinomethyl)phenyl)ethynyl)phenyl)propanamide]	8 to 32 (≈ 16 to 64.2 µM)	> 32	> 32	–
O=C(CF)NCC(Cc1ccc(C#Cc2ccc(CCN3CCOCC3)cc2)cc1)c1nc[nH]c(=O)c1O (centres unmarked) [Compound 17, 2-fluoro-N-(2-(5-hydroxy-6-oxo-1,6-dihydropyrimidin-4-yl)-3-(4-((4-(2-morpholinoethyl)phenyl)ethynyl)phenyl)propyl) acetamide]	–	–	–	E. coli MIC (E. coli; [2]): B (B: >1 μg/mL to ≤8.0 μg/mL); K. pneumoniae MIC (K. pneumoniae; [2]): C (C: >8.0 μg/mL to ≤32 μg/mL); S. aureus MIC (S. aureus; [2]): D (D: >32 μg/mL)
O=C(Nc1nnn[nH]1)C(Cc1ccc(C#Cc2ccc(CN3CCOCC3)cc2)cc1)c1nc[nH]c(=O)c1O (centres unmarked) [Compound 11, 2-(5-hydroxy-6-oxo-1,6-dihydropyrimidin-4-yl)-3-(4-((4-(morpholinomethyl)phenyl)ethynyl)phenyl)-N-(1H-tetrazol-5-yl)propanamide]	> 32	> 32	> 32	–
COC(=O)NCC(Cc1ccc(C#Cc2ccc(CN3CC4CCC(C3)O4)cc2)cc1)c1nc[nH]c(=O)c1O (centres unmarked) [Compound 21, methyl (3-(4-((4-((8-oxa-3-azabicyclo[3.2.1]octan-3-yl)methyl)phenyl)ethynyl)phenyl)-2-(5-hydroxy-6-oxo-1,6-dihydropyrimidin-4-yl)propyl)carbamate]	1 to 8 (≈ 1.89 to 15.1 µM)	8 to 32 (≈ 15.1 to 60.5 µM)	> 32	–
CNC(=O)C(Cc1ccc(C#Cc2ccc(CN3CCOCC3)cc2)cc1)c1nc[nH]c(=O)c1O (centres unmarked) [Compound 5, 2-(5-hydroxy-6-oxo-1,6-dihydropyrimidin-4-yl)-N-methyl-3-(4-((4-(morpholinomethyl)phenyl)ethynyl)phenyl) propanamide]	1 to 8 (≈ 2.12 to 16.9 µM)	> 32	> 32	–
O=c1[nH]cnc(C2(Cc3ccc(C#Cc4ccc(CN5CCOCC5)cc4)cc3)CC2)c1O [Compound 246, 5-hydroxy-6-(1-(4-((4-(morpholinomethyl)phenyl)ethynyl)benzyl)cyclopropyl)pyrimidin-4(3H)-one]	> 32	> 32	–	–
O=c1[nH]cnc(C(CNCCF)Cc2ccc(C#Cc3ccc(CN4CCOCC4)cc3)cc2)c1O (centres unmarked) [Compound 58, 6-(1-((2-fluoroethyl)amino)-3-(4-((4-(morpholinomethyl)phenyl)ethynyl)phenyl)propan-2-yl)-5-hydroxypyrimidin-4(3H)-one]	–	–	–	activity at 4 µg/mL [1]: < 20%; activity at 8 µg/mL [1]: < 20%; activity at 16 µg/mL [1]: < 20%
O=C(NCC(Cc1ccc(C#Cc2ccc(CN3CCOCC3)cc2)cc1)c1nc[nH]c(=O)c1O)C(F)(F)F (centres unmarked) [Compound 18, 2,2,2-trifluoro-N-(2-(5-hydroxy-6-oxo-1,6-dihydropyrimidin-4-yl)-3-(4-((4-(morpholinomethyl)phenyl)ethynyl)phenyl)propyl)acetamide]	1 to 8 (≈ 1.85 to 14.8 µM)	1 to 8 (≈ 1.85 to 14.8 µM)	> 32	–
NCCNC(=O)C(Cc1ccc(C#Cc2ccc(CN3CCOCC3)cc2)cc1)c1nc[nH]c(=O)c1O (centres unmarked) [Compound 10, N-(2-aminoethyl)-2-(5-hydroxy-6-oxo-1,6-dihydropyrimidin-4-yl)-3-(4-((4-(morpholinomethyl)phenyl)ethynyl)phenyl) propanamide]	1 to 8 (≈ 1.99 to 15.9 µM)	8 to 32 (≈ 15.9 to 63.8 µM)	> 32	–
CC(NC(=O)CF)C(Cc1ccc(C#Cc2ccc(CN3CCOCC3)cc2)cc1)c1nc[nH]c(=O)c1O (centres unmarked) [Compound 42, 2-fluoro-N-(3-(5-hydroxy-6-oxo-1,6-dihydropyrimidin-4-yl)-4-(4-((4-(morpholinomethyl)phenyl)ethynyl)phenyl)butan-2-yl)acetamide]	–	–	–	MIC (E. coli): > 32 µg/mL; MIC (K. pneumoniae): > 32 µg/mL; MIC (S. aureus): > 32 µg/mL
O=C(Nc1cnc[nH]1)C(Cc1ccc(C#Cc2ccc(CN3CCOCC3)cc2)cc1)c1nc[nH]c(=O)c1O (centres unmarked) [Compound 9, 2-(5-hydroxy-6-oxo-1,6-dihydropyrimidin-4-yl)-N-(1H-imidazol-5-yl)-3-(4-((4-(morpholinomethyl)phenyl)ethynyl)phenyl) propanamide]	> 32	> 32	> 32	–
O=C(CF)NCC(Cc1ccc(C#Cc2ccc(CN3CCCC3)cc2)cc1)c1nc[nH]c(=O)c1O (centres unmarked) [Compound 44, 2-fluoro-N-(2-(5-hydroxy-6-oxo-1,6-dihydropyrimidin-4-yl)-3-(4-((4-(pyrrolidin-1-ylmethyl)phenyl)ethynyl)phenyl)propyl)acetamide]	–	–	–	MIC (E. coli): > 32 µg/mL; MIC (K. pneumoniae): > 32 µg/mL; MIC (S. aureus): > 32 µg/mL
N#CC1CCN(Cc2ccc(C#Cc3ccc(CC(C(=O)NCC(F)F)c4nc[nH]c(=O)c4O)cc3)cc2)C1 (centres unmarked) [Compound 102, 3-(4-((4-((3-cyanopyrrolidin-1-yl)methyl)phenyl)ethynyl)phenyl)-N-(2,2-difluoroethyl)-2-(5-hydroxy-6-oxo-1,6-dihydropyrimidin-4-yl)propanamide]	–	–	–	activity at 4 µg/mL [1]: 20 to 50%; activity at 8 µg/mL [1]: < 20%; activity at 16 µg/mL [1]: < 20%
O=c1[nH]cnc(C(CNCCc2cccnc2)Cc2ccc(C#Cc3ccc(CN4CCOCC4)cc3)cc2)c1O (centres unmarked) [Compound 251, 5-hydroxy-6-(1-(4-((4-(morpholinomethyl)phenyl)ethynyl)phenyl)-3-((2-(pyridin-3-yl)ethyl)amino)propan-2-yl)pyrimidin-4(3H)-one]	> 32	> 32	–	–
CCCNCC(Cc1ccc(C#Cc2ccc(CN3CCOCC3)cc2)cc1)c1nc[nH]c(=O)c1O (centres unmarked) [Compound 60, 5-hydroxy-6-(1-(4-((4-(morpholinomethyl)phenyl)ethynyl)phenyl)-3-(propylamino)propan-2-yl)pyrimidin-4(3H)-one]	–	–	–	activity at 4 µg/mL [1]: > 80%; activity at 8 µg/mL [1]: > 80%; activity at 16 µg/mL [1]: > 80%

More lines, main results first:

MIC (E. coli; [2]) [µg/mL]	MIC (K. pneumoniae; [2]) [µg/mL]	MIC (S. aureus; [2]) [µg/mL]	SMILES	further results
< 1	< 1	> 32	O=c1[nH]cnc(CCc2ccc(C#Cc3ccc(CN4CCOCC4)c(F)c3)cc2)c1O [Compound 186, 6-(4-((3-fluoro-4-(morpholinomethyl)phenyl)ethynyl)phenethyl)-5-hydroxypyrimidin-4(3H)-one]	–
1 to 8 (≈ 2.06 to 16.4 µM)	8 to 32 (≈ 16.4 to 65.8 µM)	> 32	CC(=O)NCC(Cc1ccc(C#Cc2ccc(CN3CCOCC3)cc2)cc1)c1nc[nH]c(=O)c1O (centres unmarked) [Compound 19, N-(2-(5-hydroxy-6-oxo-1,6-dihydropyrimidin-4-yl)-3-(4-((4-(morpholinomethyl)phenyl)ethynyl)phenyl)propyl)acetamide]	–
1 to 8 (≈ 1.9 to 15.2 µM)	> 32	> 32	O=C(Nc1cnoc1)C(Cc1ccc(C#Cc2ccc(CN3CCOCC3)cc2)cc1)c1nc[nH]c(=O)c1O (centres unmarked) [Compound 4, 2-(5-hydroxy-6-oxo-1,6-dihydropyrimidin-4-yl)-N-(isoxazol-4-yl)-3-(4-((4-(morpholinomethyl)phenyl)ethynyl)phenyl) propanamide]	–
< 1	1 to 8 (≈ 2.48 to 19.8 µM)	> 32	COCCNCc1ccc(C#Cc2ccc(CCc3nc[nH]c(=O)c3O)cc2)cc1 [Compound 245, 5-hydroxy-6-(4-((4-(((2-methoxyethyl)amino)methyl)phenyl)ethynyl)phenethyl)pyrimidin-4(3H)-one]	–
< 1	> 32	–	O=c1[nH]cnc(C(Cc2ccc(C#Cc3ccc(CN4CCOCC4)cc3)cc2)CN2CCOCC2)c1O (centres unmarked) [Compound 249, 5-hydroxy-6-(1-morpholino-3-(4-((4-(morpholinomethyl)phenyl)ethynyl)phenyl)propan-2-yl)pyrimidin-4(3H)-one]	–
< 1	1 to 8 (≈ 2.33 to 18.7 µM)	> 32	N#CC1CN(Cc2ccc(C#Cc3ccc(CCc4nc[nH]c(=O)c4O)cc3F)cc2)C1 [Compound 188, 1-(4-((2-fluoro-4-(2-(5-hydroxy-6-oxo-1,6-dihydropyrimidin-4-yl)ethyl)phenyl)ethynyl)benzyl)azetidine-3-carbonitrile]	–
< 1	< 1	> 32	O=c1[nH]cnc(CCc2ccc(C#Cc3ccc(CNC4CCOC4)cc3)cc2)c1O (centres unmarked) [Compound 241, 5-hydroxy-6-(4-((4-(((tetrahydrofuran-3-yl)amino)methyl)phenyl)ethynyl)phenethyl)pyrimidin-4(3H)-one]	–
< 1	< 1	> 32	O=c1[nH]cnc(CCc2ccc(C#Cc3ccc(CN4CCOCC4)cc3F)cc2)c1O [Compound 185, 6-(4-((2-fluoro-4-(morpholinomethyl)phenyl)ethynyl)phenethyl)-5-hydroxypyrimidin-4(3H)-one]	–
